Results: ChEMBL document CHEMBL1938244, “Synthesis, anticancer activity and apoptosis inducing ability of bisindole linked pyrrolo[2,1-c][1,4]benzodiazepine conjugates” (2012)
Activity calls are given as the source filed them. The calls are words filed in the database; no cut-off is given here.

Assays:
Tubulin (Homo sapiens) = Tubulin (Homo sapiens) (UniProt P68371+Q9H4B7+P0DPH7+P68366+Q13509+Q71U36+P04350+Q3ZCM7+P07437+P68363+Q9BQE3+Q6PEY2+Q13885+Q9BVA1+Q9BUF5); assay: Inhibition of tubulin polymerization in human MCF7 cells at 2 uM after 24 hrs by FITC-conjugated immunostaining assay; assay type: cell-based
MCF7 [1] = assay: Inhibition of HDAC1 protein expression in human MCF7 cells at 2 uM after 24 hrs by Western blotting; assay type: functional, cell-based
MCF7 [2] = assay: Inhibition of HDAC2 protein expression in human MCF7 cells at 2 uM after 24 hrs by Western blotting; assay type: functional, cell-based
MCF7 [3] = assay: Inhibition of HDAC3 protein expression in human MCF7 cells at 2 uM after 24 hrs by Western blotting; assay type: functional, cell-based
MCF7 [4] = assay: Inhibition of HDAC8 protein expression in human MCF7 cells at 2 uM after 24 hrs by Western blotting; assay type: functional, cell-based
MCF7 [5] = assay: Increase in p21 protein level in human MCF7 cells at 2 uM after 24 hrs by Western blotting; assay type: functional, cell-based
MCF7 [6] = assay: Induction of apoptosis in human MCF7 cells assessed as PARP-cleavage at 8 uM after 24 hrs by Western blot analysis; assay type: functional, cell-based
MCF7 [7] = assay: Induction of apoptosis in human MCF7 cells assessed as caspase-7 activation at 8 uM after 24 hrs by Western blot analysis; assay type: functional, cell-based
MCF7 [8] = assay: Anticancer activity against human MCF7 cells by SRB method; assay type: functional
ZR-75-1 = assay: Anticancer activity against human ZR-75-1 cells by SRB method; assay type: functional
A2780 = assay: Anticancer activity against human A2780 cells by SRB method; assay type: functional
COLO 205 = assay: Anticancer activity against human COLO205 cells by SRB method; assay type: functional
SiHa = assay: Anticancer activity against human SiHa cells by SRB method; assay type: functional
A549 = assay: Anticancer activity against human A549 cells by SRB method; assay type: functional
KB = assay: Anticancer activity against human KB cells by SRB method; assay type: functional
MCF7 [9] = assay: Anticancer activity against human MCF7 cells assessed as cell death at 2 uM after 24 hrs by MTT assay; assay type: functional
MCF7 [10] = assay: Induction of cell cycle arrest in human MCF7 cells assessed as accumulation of cells in G0 phase at 2 uM after 24 hrs by flow cytometry relative to untreated control; assay type: functional
MCF7 [11] = assay: Induction of cell cycle arrest in human MCF7 cells assessed as accumulation of cells in G1 phase at 2 uM after 24 hrs by flow cytometry relative to untreated control; assay type: functional
MCF7 [12] = assay: Induction of cell cycle arrest in human MCF7 cells assessed as accumulation of cells in S phase at 2 uM after 24 hrs by flow cytometry relative to untreated control; assay type: functional
MCF7 [13] = assay: Induction of cell cycle arrest in human MCF7 cells assessed as accumulation of cells in G2/M phase at 2 uM after 24 hrs by flow cytometry relative to untreated control; assay type: functional
MCF7 [14] = assay: Induction of cell cycle arrest in human MCF7 cells assessed as accumulation of cells in G0 phase at 4 uM after 24 hrs by flow cytometry relative to untreated control; assay type: functional
MCF7 [15] = assay: Induction of cell cycle arrest in human MCF7 cells assessed as accumulation of cells in G1 phase at 4 uM after 24 hrs by flow cytometry relative to untreated control; assay type: functional
MCF7 [16] = assay: Induction of cell cycle arrest in human MCF7 cells assessed as accumulation of cells in S phase at 4 uM after 24 hrs by flow cytometry relative to untreated control; assay type: functional
MCF7 [17] = assay: Induction of cell cycle arrest in human MCF7 cells assessed as accumulation of cells in G2/M phase at 4 uM after 24 hrs by flow cytometry relative to untreated control; assay type: functional
MCF7 [18] = assay: Induction of cell cycle arrest in human MCF7 cells assessed as accumulation of cells in G0 phase at 8 uM after 24 hrs by flow cytometry relative to untreated control; assay type: functional
MCF7 [19] = assay: Induction of cell cycle arrest in human MCF7 cells assessed as accumulation of cells in G1 phase at 8 uM after 24 hrs by flow cytometry relative to untreated control; assay type: functional
MCF7 [20] = assay: Induction of cell cycle arrest in human MCF7 cells assessed as accumulation of cells in S phase at 8 uM after 24 hrs by flow cytometry relative to untreated control; assay type: functional
MCF7 [21] = assay: Induction of cell cycle arrest in human MCF7 cells assessed as accumulation of cells in G2/M phase at 8 uM after 24 hrs by flow cytometry relative to untreated control; assay type: functional
MCF7 [22] = assay: Induction of cell cycle arrest in human MCF7 cells assessed as accumulation of cells in G0 phase at 2 uM after 24 hrs by flow cytometry (reference value: 2.9%); assay type: functional
MCF7 [23] = assay: Induction of cell cycle arrest in human MCF7 cells assessed as accumulation of cells in G1 phase at 2 uM after 24 hrs by flow cytometry (reference value: 46%); assay type: functional
MCF7 [24] = assay: Induction of cell cycle arrest in human MCF7 cells assessed as accumulation of cells in S phase at 2 uM after 24 hrs by flow cytometry (reference value: 14.87%); assay type: functional
MCF7 [25] = assay: Induction of cell cycle arrest in human MCF7 cells assessed as accumulation of cells in G2/M phase at 2 uM after 24 hrs by flow cytometry (reference value: 36.23%); assay type: functional
MCF7 [26] = assay: Induction of cell cycle arrest in human MCF7 cells assessed as accumulation of cells in G0 phase at 4 uM after 24 hrs by flow cytometry (reference value: 3.22%); assay type: functional
MCF7 [27] = assay: Induction of cell cycle arrest in human MCF7 cells assessed as accumulation of cells in G1 phase at 4 uM after 24 hrs by flow cytometry (reference value: 65.58%); assay type: functional
MCF7 [28] = assay: Induction of cell cycle arrest in human MCF7 cells assessed as accumulation of cells in S phase at 4 uM after 24 hrs by flow cytometry (reference value: 5.55%); assay type: functional
MCF7 [29] = assay: Induction of cell cycle arrest in human MCF7 cells assessed as accumulation of cells in G2/M phase at 4 uM after 24 hrs by flow cytometry (reference value: 25.65%); assay type: functional
MCF7 [30] = assay: Induction of cell cycle arrest in human MCF7 cells assessed as accumulation of cells in G0 phase at 8 uM after 24 hrs by flow cytometry (reference value: 3.22%); assay type: functional
MCF7 [31] = assay: Induction of cell cycle arrest in human MCF7 cells assessed as accumulation of cells in G1 phase at 8 uM after 24 hrs by flow cytometry (reference value: 65.58%); assay type: functional
MCF7 [32] = assay: Induction of cell cycle arrest in human MCF7 cells assessed as accumulation of cells in S phase at 8 uM after 24 hrs by flow cytometry (reference value: 5.55%); assay type: functional
MCF7 [33] = assay: Induction of cell cycle arrest in human MCF7 cells assessed as accumulation of cells in G2/M phase at 8 uM after 24 hrs by flow cytometry (reference value: 25.65%); assay type: functional

## COc1cc2c(cc1OCCCCCOc1ccc(C(c3c[nH]c4ccccc34)c3c[nH]c4ccccc34)cc1)N=C[C@@H]1CCCN1C2=O
Tubulin (Homo sapiens)
  inhibition: Active
MCF7 [1]
  inhibition: Active
MCF7 [2]
  inhibition: Active
MCF7 [3]
  inhibition: Active
MCF7 [4]
  inhibition: Active
MCF7 [5]
  Activity: Active
MCF7 [6]
  Activity: Active
MCF7 [7]
  Activity: Active
MCF7 [8]
  GI50: 140 nM
ZR-75-1
  GI50: 120 nM
A2780
  GI50: 110 nM
COLO 205
  GI50: 26100 nM
SiHa
  GI50: 180 nM
A549
  GI50: 2400 nM
KB
  GI50: 130 nM
MCF7 [9]
  Activity: 50%
MCF7 [10]
  Activity: 3.57%
MCF7 [11]
  Activity: 40.67%
MCF7 [12]
  Activity: 9.08%
MCF7 [13]
  Activity: 46.67%
MCF7 [14]
  Activity: 16.11%
MCF7 [15]
  Activity: 68.33%
MCF7 [16]
  Activity: 6.95%
MCF7 [17]
  Activity: 8.6%
MCF7 [18]
  Activity: 50.15%
MCF7 [19]
  Activity: 46.11%
MCF7 [20]
  Activity: 2.32%
MCF7 [21]
  Activity: 1.41%
MCF7 [22]
  Activity: 3.96%
MCF7 [23]
  Activity: 41.51%
MCF7 [24]
  Activity: 9.34%
MCF7 [25]
  Activity: 45.19%
MCF7 [26]
  Activity: 16.45%
MCF7 [27]
  Activity: 68.23%
MCF7 [28]
  Activity: 6.97%
MCF7 [29]
  Activity: 8.35%
MCF7 [30]
  Activity: 51.96%
MCF7 [31]
  Activity: 44.26%
MCF7 [32]
  Activity: 2.04%
MCF7 [33]
  Activity: 1.75%
